Like-named read-outs stand apart in the source and are kept apart here.
Tests used:
[1] = tested on: Long-Evans rats; assay: 8 hour retention test on a twelve-arm radial maze (spatial memory); assay type: in vivo, rat; details: vs vehicle, t(11)=2.69, p<0.02
Method: 12-arm maze test: Behavioral testing was conducted by an experimenter who was blind to drug treatment. 12 Long-Evans rats trained to use a win-shift strategy were given an information trial. During the information trial, 5 of the 12 arms of the 12 arm maze were blocked so that rats were not able to consume food from those blocked arms but could obtain food from each of the 7 open arms. After this session rats were moved to their home cage and placed back in the animal holding room. […] A retroactive memory error is made when the rat enters an arm that was […] on the information trial.
12 rats (divided into three groups) were used in the experiment. Sixty minutes prior to the information session, the rats were injected intraperitoneally (IP) with 150 mg/kg ABPA (Saegis Pharmaceuticals, Inc.), 3 mg/kg donepezil, or combination of 150 mg/kg ABPA and 3 mg/kg donepezil. Physiological saline (NaCl) was used as vehicle. Treatment order was counterbalanced among three groups such that each group (N=4) received a different order of vehicle, ABPA, donepezil, and ABPA+donepezil injection across days, for a total of three tests for each treatment in all subjects.

[2] = tested on: rats; assay type: in vivo, rat; details: for performance in the object recognition task: vs saline; for Recognition Score: saline 61%
Method: The experimental protocol is as follows:
[…]. Both drugs were administered by intraperitoneal (IP) injection. […].

[3] = tested on: humans; details: cited from earlier work
[4] = cited from earlier work
[5] = in vivo; cited from earlier work

SMILES	retention test performance on the 12-arm maze ([1]; 3 mg/kg donepezil IP 60 min prior to information session)	performance in the object recognition task ([2]; donepezil 1.7 mg/kg IP 30 min prior to information trial)	Recognition Score ([2]; donepezil alone at 0.56 mg/kg)	Recognition Score ([2]; donepezil alone at 1 mg/kg)	cognitive effect in Alzheimer's Disease patients ([3]; Barner and Gray, 1998, Rogers and Friedhoff)	side effect profile in humans ([3]; human, in vivo)	retention test performance on the 12-arm maze ([1]; 150 mg/kg ABPA IP 60 min prior to information session)	performance in the object recognition task ([2]; ABPA 3 and 30 mg/kg IP 30 min prior to information trial, delay of 6 hours)	performance in the object recognition task ([2]; ABPA 10, 100, 170, and 300 mg/kg IP 30 min prior to information trial, delay of 6 hours)	Recognition Score ([2]; ABPA alone at 3 mg/kg)	Recognition Score ([2]; ABPA alone at 10 mg/kg)	water solubility [4]	blood brain barrier crossing [5]
COc1cc2c(cc1OC)C(=O)C(CC1CCN(Cc3ccccc3)CC1)C2 (racemic) [donepezil, (±)-2,3-dihydro-5,6-dimethoxy-2-[[1-(phenylmethyl)-4-piperidinyl]methyl]-1H-inden-1-one, reference compound]	improved performance	significantly improved performance	62%	63%	slight cognitive improvements	cholinergic side effect profile	–	–	–	–	–	–	–
CCCCP(=O)(O)CCCN [ABPA, 3-aminopropyl-(n-butyl)-phosphinic acid]	–	–	–	–	–	–	improved performance	no beneficial effect	significantly enhanced performance	61%	70%	highly water-soluble	readily crosses the blood brain barrier
